Source: patent US20230340011A1 (Asteroid Therapeutics, priority 2022, published 2023)

Target: SREBP-2 (Homo sapiens (Human), UniProt Q12772)
Assay: In vitro assay SREBP-2: PathHunter U2OS SREBP-2 Nuclear Translocation Cell Line, U18666A-stimulated
Assay type: cell-based
Conditions: PathHunter U2OS SREBP-2 nuclear translocation cells, U18666A 10 μM, overnight (16 hours)

Compound	IC50
COC(=O)N1CCN(C(=O)O[C@@H](C)[C@H]2CC[C@H]3[C@@H]4CC=C5C[C@@H](O)CC[C@]5(C)[C@H]4CC[C@]23C)CC1 [Example 466, 1-(1S)-1-[(1S,3aS,3bS,7S,9aR,9bS,11aS)-7-hydroxy-9a,11a-dimethyl-1H,2H,3H,3aH,3bH,4H,6H,7H,8H,9H,9aH,9bH,10H,11H,11aH-cyclopenta[a]phenanthren-1-yl]ethyl 4-methyl piperazine-1,4-dicarboxylate]	250 to 1000 nM
C[C@H](CCC(=O)N1CCN(C(N)=O)CC1)[C@H]1CC[C@H]2[C@@H]3CC=C4C[C@@H](O)CC[C@]4(C)[C@H]3CC[C@]12C [Example 4, 4—((R)-4-((3S,8S,9S,10R,13R,14S,17R)-3-hydroxy-10,13-dimethyl-2,3,4,7,8,9,10,11,12,13,14,15,16,17-tetradecahydro-1H-cyclopenta[a]phenanthren-17-yl)pentanoyl)piperazine-1-carboxamide]	< 250 nM
CNC(=O)c1cccc(OC[C@@H](C)[C@H]2CC[C@H]3[C@@H]4CC=C5C[C@@H](O)CC[C@]5(C)[C@H]4CC[C@]23C)n1 [Example 448, 6-((S)-2-((3S,8S,9S,10R,13S,14S,17R)-3-hydroxy-10,13-dimethyl-2,3,4,7,8,9,10,11,12,13,14,15,16,17-tetradecahydro-1H-cyclopenta[a]phenanthren-17-yl)propoxy)-N-methylpicolinamide]	250 to 1000 nM
C[C@H](CC[C@](O)(C1CC1)C(F)(F)F)[C@H]1CC[C@H]2[C@@H]3CC=C4C[C@@](C)(O)CC[C@]4(C)[C@H]3CC[C@]12C [Example 368, (3S,8S,9S,10R,13R,14S,17R)-17-((2R,5S)-5-cyclopropyl-6,6,6-trifluoro-5-hydroxyhexan-2-yl)-3,10,13-trimethyl-2,3,4,7,8,9,10,11,12,13,14,15,16,17-tetradecahydro-1H-cyclopenta[a]phenanthren-3-ol]	250 to 1000 nM
COc1cccnc1CC[C@@H](C)[C@H]1CC[C@H]2[C@@H]3CC=C4C[C@@H](O)CC[C@]4(C)[C@H]3CC[C@]12C [Example 186, (1R,3aS,3bS,7S,9aR,9bS,11aR)-1-[(2R)-4-(3-methoxypyridin-2-yl)butan-2-yl]-9a,11a-dimethyl-1H,2H,3H,3aH,3bH,4H,6H,7H,8H,9H,9aH,9bH,10H,11H,11aH-cyclopenta[a]phenanthren-7-ol]	< 250 nM
CNC(=O)c1ccc(OC[C@@H](C)[C@H]2CC[C@H]3[C@@H]4CC=C5C[C@@H](O)CC[C@]5(C)[C@H]4CC[C@]23C)nc1 [Example 449, 6-((S)-2-((3S,8S,9S,10R,13S,14S,17R)-3-hydroxy-10,13-dimethyl-2,3,4,7,8,9,10,11,12,13,14,15,16,17-tetradecahydro-1H-cyclopenta[a]phenanthren-17-yl)propoxy)-N-methylnicotinamide]	< 250 nM
CNC(=O)c1ccncc1O[C@@H](C)[C@H]1CC[C@H]2[C@@H]3CC=C4C[C@@H](O)CC[C@]4(C)[C@H]3CC[C@]12C [Example 265, 3-((S)-1-((3S,8S,9S,10R,13S,14S,17S)-3-hydroxy-10,13-dimethyl-2,3,4,7,8,9,10,11,12,13,14,15,16,17-tetradecahydro-1H-cyclopenta[a]phenanthren-17-yl)ethoxy)-N-methylisonicotinamide]	1000 to 10000 nM
CCN(CC(=O)O)C(=O)CC[C@@H](C)[C@H]1CC[C@H]2[C@@H]3CC=C4C[C@@H](O)CC[C@]4(C)[C@H]3CC[C@]12C [Example 109, N-ethyl-N—((R)-4-((3S,8S,9S,10R,13R,14S,17R)-3-hydroxy-10,13-dimethyl-2,3,4,7,8,9,10,11,12,13,14,15,16,17-tetradecahydro-1H-cyclopenta[a]phenanthren-17-yl)pentanoyl)glycine]	> 10000 nM
C[C@H](CCC(=O)N1CCC(O)(CC(F)(F)F)CC1)[C@H]1CC[C@H]2[C@@H]3CC=C4C[C@@H](O)CC[C@]4(C)[C@H]3CC[C@]12C [Example 152, (R)-4-((3S,8S,9S,10R,13R,14S,17R)-3-hydroxy-10,13-dimethyl-2,3,4,7,8,9,10,11,12,13,14,15,16,17-tetradecahydro-1H-cyclopenta[a]phenanthren-17-yl)-1-(4-hydroxy-4-(2,2,2-trifluoroethyl)piperidin-1-yl) pentan-1-one]	< 250 nM
C[C@H](CCC(=O)N1CC[C@H](C(=O)N(C)C)C1)[C@H]1CC[C@H]2[C@@H]3CC=C4C[C@@H](O)CC[C@]4(C)[C@H]3CC[C@]12C [Example 537, (S)-1-((R)-4-((3S,8S,9S,10R,13R,14S,17R)-3-hydroxy-10,13-dimethyl-2,3,4,7,8,9,10,11,12,13,14,15,16,17-tetradecahydro-1H-cyclopenta[a]phenanthren-17-yl)pentanoyl)-N,N-dimethylpyrrolidine-3-carboxamide]	250 to 1000 nM
C[C@H](CCC(=O)N1CCCC(c2ccncc2)C1)[C@H]1CC[C@H]2[C@@H]3CC=C4C[C@@H](O)CC[C@]4(C)[C@H]3CC[C@]12C (stereo partly drawn) [Example 346, (4R)-4-((3S,8S,9S,10R,13R,14S,17R)-3-hydroxy-10,13-dimethyl-2,3,4,7,8,9,10,11,12,13,14,15,16,17-tetradecahydro-1H-cyclopenta[a]phenanthren-17-yl)-1-(3-(pyridin-4-yl)piperidin-1-yl)pentan-1-one]	< 250 nM
CCCC1(O)CCN(C(=O)CC[C@@H](C)[C@H]2CC[C@H]3[C@@H]4CC=C5C[C@@H](O)CC[C@]5(C)[C@H]4CC[C@]23C)CC1 [Example 148, (R)-4-((3S,8S,9S,10R,13R,14S,17R)-3-hydroxy-10,13-dimethyl-2,3,4,7,8,9,10,11,12,13,14,15,16,17-tetradecahydro-1H-cyclopenta[a]phenanthren-17-yl)-1-(4-hydroxy-4-propylpiperidin-1-yl) pentan-1-one]	< 250 nM
Cc1cccnc1CC[C@@H](C)[C@H]1CC[C@H]2[C@@H]3CC=C4C[C@@H](O)CC[C@]4(C)[C@H]3CC[C@]12C [Example 130, (3S,8S,9S,10R,13R,14S,17R)-10,13-dimethyl-17-((R)-4-(3-methylpyridin-2-yl)butan-2-yl)-2,3,4,7,8,9,10,11,12,13,14,15,16,17-tetradecahydro-1H-cyclopenta[a]phenanthren-3-ol]	< 250 nM
C[C@H](Oc1ccc(CO)nc1)[C@H]1CC[C@H]2[C@@H]3CC=C4C[C@@H](O)CC[C@]4(C)[C@H]3CC[C@]12C [Example 435, (3S,8S,9S,10R,13S,14S,17S)-17-((S)-1-((6-(hydroxymethyl)pyridin-3-yl)oxy)ethyl)-10,13-dim ethyl-2,3,4,7,8,9,10,11,12,13,14,15,16,17-tetradecahydro-1H-cyclopenta[a]phenanthren-3-ol]	250 to 1000 nM
CNC(=O)[C@H]1CCN(C(=O)CC[C@@H](C)[C@H]2CC[C@H]3[C@@H]4CC=C5C[C@@H](O)CC[C@]5(C)[C@H]4CC[C@]23C)C1 [Example 536, (S)-1-((R)-4-((3S,8S,9S,10R,13R,14S,17R)-3-hydroxy-10,13-dimethyl-2,3,4,7,8,9,10,11,12,13,14,15,16,17-tetradecahydro-1H-cyclopenta[a]phenanthren-17-yl)pentanoyl)-N-methylpyrrolidine-3-carboxamide]	250 to 1000 nM
